In patent publication US10053468B2, “Heterocyclic compound” (TAKEDA PHARMACEUTICAL COMPANY LIMITED, priority 2013, dated 2018) one finds inhibition data, which are given here for 14 compounds.

In assay [1] the target is T1, RORγt (Homo sapiens, UniProt P51449).
T1 sequence (P51449 1-497 isoform P51449-2): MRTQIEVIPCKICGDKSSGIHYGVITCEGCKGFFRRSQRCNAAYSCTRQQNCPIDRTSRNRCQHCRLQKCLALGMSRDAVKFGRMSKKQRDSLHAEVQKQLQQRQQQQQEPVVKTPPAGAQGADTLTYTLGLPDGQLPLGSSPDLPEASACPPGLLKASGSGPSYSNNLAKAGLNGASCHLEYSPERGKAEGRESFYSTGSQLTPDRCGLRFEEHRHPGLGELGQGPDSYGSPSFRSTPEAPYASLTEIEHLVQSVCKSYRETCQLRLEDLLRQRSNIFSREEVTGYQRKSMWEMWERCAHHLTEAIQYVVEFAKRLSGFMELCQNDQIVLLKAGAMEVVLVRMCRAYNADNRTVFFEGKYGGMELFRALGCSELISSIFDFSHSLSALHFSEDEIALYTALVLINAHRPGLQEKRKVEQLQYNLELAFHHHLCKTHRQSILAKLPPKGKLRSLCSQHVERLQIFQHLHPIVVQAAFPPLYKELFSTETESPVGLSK
The assay can be described thus: RORγt binding test using fluorescent-labeled synthetic ligand (TR-FRET). The settings on record: read-out: Binding inhibitory rate of fluorescent-labeled synthetic ligand to RORγt at test compound 1 μM (%). How it is done:
RORγt Binding Test Using Fluorescent-labeled Synthetic Ligand
(§1) The binding activity of the test compound to RORγt was measured by a time resolved fluorescence resonance energy transfer method (TR-FRET) utilizing histidine-tagged RORγt, fluorescent-labeled synthetic ligand, and terbium-labeled anti-histidine tag antibody (Invitrogen). First, a test compound diluted with an assay buffer (20 mM Tris-HCl (pH 7.5), 100 mM NaCl, 1 mM DTT, 0.1% BSA) was added to a 384 well plate by 3 μL. Then, RORγt diluted with an assay buffer to 240 nM was added by 3 μL, after which fluorescent-labeled synthetic ligand diluted with the assay buffer to 12 μM was added by 3 μL, and the mixture was stood at room temperature for 20 min. Thereafter, a terbium-labeled anti-histidine tag antibody diluted with the assay buffer to 8 nM was added by 3 μL. The mixture was stood at room temperature for 20 min, and fluorescence intensity (excitation wavelength 320 nm, fluorescence wavelength 520 nm, delay time 100 microseconds) was measured by Envision (PerkinElmer).

Assay [2] concerns the target T1, RORγt. Put plainly: Cofactor recruitment test (Alpha Screen, biotinylated SRC-1 peptide). In kind it is biochemical. Particulars: read-out: Signal value inhibitory rate at test compound 1 μM (%). How it is done: Cofactor Recruitment Test
Cofactor recruitment test was performed by Alpha Screen (Histidine Detection Kit, PerkinElmer) method. First, a test compound was diluted with an assay buffer (50 mM Tris-HCl (pH 7.5), 50 mM KCl, 1 mM DTT, 0.1% BSA) and added to a 384 well plate by 5 μL. […] The mixture was stood in a dark place for 1 hr, and the signal value was measured by Envision (PerkinElmer).

Assay [3] addresses T1, RORγt. Put plainly: Jurkat reporter test (human IL-17 ROR response element luciferase, RORγt vector). The format is cell-based. The settings on record: read-out: Luminescence level inhibitory rate at test compound 3 μM (%). How it is done:
The Jurkat cells used for the reporter test were cultured in a culture medium (RPMI (Invitrogen), 10% FCS (AusGeneX), 100 U/mL penicillin, 100 μg/mL streptomycin). On the day of the test, 4×10^7 cells were recovered by a centrifugal operation (1000 rpm, 5 min.) and suspended in PBS (phosphate buffered saline) (Invitrogen). Thereafter, the cells were recovered again by a centrifugal operation, and suspended in 2 mL of R buffer (NEON transfection kit, Invitrogen). […] Gene transfer was performed by Electroporation apparatus (NEON, Invitrogen) under the conditions of pulse voltage 1350 V, interval 10 milliseconds, number of times 3. The cells after gene transfer were suspended in 40 mL of a reaction medium (RPMI, 10% Lipid reduced FCS (HyClone), 10 mM HEPES (pH 7.5), 100 U/mL penicillin, 100 μg/mL streptomycin, 5 μM lovastatin), and plated in a 96 well plate by 90 μL. A test compound diluted with the reaction medium was added by 10 μL, and the cells were cultured overnight in an incubator. Bright-Glo (Promega) was added by 100 μL, and the mixture was stirred at room temperature for 10 min, and the luminescence level was measured by Envision (PerkinElmer).

For assay [4], the target named is T1, RORγt. The assay can be described thus: RORγt binding test using fluorescent-labeled cholesterol (TR-FRET). Particulars: read-out: Binding inhibitory rate of fluorescent-labeled cholesterol to RORγt at test compound 1 μM (%). On the procedure: RORγt Binding Test Using Fluorescent-labeled Cholesterol
as §1, with “cholesterol (BODIPY-cholesterol, AVIVA),” for “synthetic ligand,”, “cholesterol” for “synthetic ligand”
(In TR-FRET formats the signal depends on donor and acceptor labels being close together.)

Setting [5] is: test compound 3 μM, Jurkat cells.

Like-named read-outs stand apart in the source and are kept apart here.

In the case of `CC[Si](C)(C)c1c(F)cc(NC(=O)[C@H]2c3ccc(OC)cc3CCN2C(=O)Cc2cc(O)no2)cc1F` [Example 88, (1R)-N-(4-(ethyl (dimethyl)silyl)-3,5-difluorophenyl)-2-((3-hydroxy-1,2-oxazol-5-yl)acetyl)-6-methoxy-1,2,3,4-tetrahydroisoquinoline-1-carboxamide], at RORγt [1], the inhibition at 1 µM was 102%.
Consider `CCOCC(C)(C)c1c(F)cc(NC(=O)[C@H]2c3ccc(OCC)cc3CCN2C(=O)Cc2cc(O)no2)cc1F` [Example 168, (1R)-6-ethoxy-N-(4-(1-ethoxy-2-methylpropan-2-yl)-3,5-difluorophenyl)-2-((3-hydroxy-1,2-oxazol-5-yl)acetyl)-1,2,3,4-tetrahydroisoquinoline-1-carboxamide], for which the inhibition at 1 µM was found to be 86% on RORγt [2] and 97% at RORγt [4]. In addition, the inhibition at 3 µM at RORγt [3] (setting [5]) was 99%.
`CC[Si](C)(C)c1c(F)cc(NC(=O)[C@H]2c3ccc(COC)nc3CCN2C(=O)Cc2cc(O)no2)cc1F` [Example 173, (5R)-N-(4-(ethyl (dimethyl)silyl)-3,5-difluorophenyl)-6-((3-hydroxy-1,2-oxazol-5-yl)acetyl)-2-(methoxymethyl)-5,6,7,8-tetrahydro-1,6-naphthyridine-5-carboxamide]: the inhibition at 1 µM on RORγt [2] came out at 97%; on RORγt [4], 101%. Moreover, the inhibition at 3 µM on RORγt [3] (Jurkat) is 99%.
On the same counts, the results for `CC[Si](C)(C)c1c(F)cc(NC(=O)[C@H]2c3ccc(COC)nc3CCN2C(=O)c2cc(O)no2)cc1F` [Example 174, (5R)-N-(4-(ethyl (dimethyl)silyl)-3,5-difluorophenyl)-6-((3-hydroxy-1,2-oxazol-5-yl)carbonyl)-2-(methoxymethyl)-5,6,7,8-tetrahydro-1,6-naphthyridine-5-carboxamide] are 88%, 101% and 98%.
For the compound `CCOc1ccc2c(c1)CCN(C(=O)CCC(=O)O)[C@H]2C(=O)Nc1cc(F)c([Si](C)(C)C)c(F)c1` [Example 180, 4-((1R)-1-((3,5-difluoro-4-(trimethylsilyl)phenyl)carbamoyl)-6-ethoxy-3,4-dihydroisoquinolin-2(1H)-yl)-4-oxobutanoic acid], the inhibition at 1 µM on RORγt [2] was determined as 93%; on RORγt [1], 101%. For the same compound, the inhibition at 3 µM at RORγt [3] (Jurkat) stood at 100%.
With `CCOc1ccc2c(c1)CCN(C(=O)CCCC(=O)O)[C@H]2C(=O)Nc1cc(F)c2c(c1)CCC2(C)C` [Example 182, 5-((1R)-6-ethoxy-1-((7-fluoro-1,1-dimethyl-2,3-dihydro-1H-inden-5-yl)carbamoyl)-3,4-dihydroisoquinolin-2(1H)-yl)-5-oxopentanoic acid], the inhibition at 1 µM at RORγt [2] is 67%; on RORγt [1], 101%. Moreover, the inhibition at 3 µM at RORγt [3] (setting [5]) came to 99%.
Turning to `CCOc1ccc2c(c1)CCN(C(=O)CCCC(=O)O)[C@H]2C(=O)Nc1ccc([Si](C)(C)C)c(F)c1` [Example 183, 5-((1R)-6-ethoxy-1-((3-fluoro-4-(trimethylsilyl)phenyl)carbamoyl)-3,4-dihydroisoquinolin-2 (1H)-yl)-5-oxopentanoic acid], the inhibition at 1 µM on RORγt [2] worked out at 91%; on RORγt [1], 101%. Moreover, at RORγt [3] (Jurkat), the inhibition at 3 µM worked out at 102%.
On the same counts, the results for `CCOc1ccc2c(c1)CCN(C(=O)CCCC(=O)O)[C@H]2C(=O)Nc1cc(F)c([Si](C)(C)C)cc1F` [Example 184, 5-((1R)-1-((2,5-difluoro-4-(trimethylsilyl)phenyl)carbamoyl)-6-ethoxy-3,4-dihydroisoquinolin-2(1H)-yl)-5-oxopentanoic acid] are 93%, 101% and 100%.
For the compound `C[Si](C)(C)c1ccc(NC(=O)[C@H]2c3ccc(OC(F)F)cc3CCN2C(=O)CCCC(=O)O)cc1F` [Example 194, 5-((1R)-6-(difluoromethoxy)-1-((3-fluoro-4-(trimethylsilyl)phenyl)carbamoyl)-3,4-dihydroisoquinolin-2(1H)-yl)-5-oxopentanoic acid], the inhibition at 1 µM was 87% on RORγt [2] and 101% on RORγt [1]. Moreover, at RORγt [3] (Jurkat), the inhibition at 3 µM was 100%.
On to `C[Si](C)(C)c1c(F)cc(NC(=O)[C@H]2c3ccc(OC(F)F)cc3CCN2C(=O)CCC(=O)O)cc1F` [Example 195, 4-((1R)-6-(difluoromethoxy)-1-((3,5-difluoro-4-(trimethylsilyl)phenyl)carbamoyl)-3,4-dihydroisoquinolin-2 (1H)-yl)-4-oxobutanoic acid], for which the inhibition at 1 µM at RORγt [2] is 89%; on RORγt [1] it was 101%. The inhibition at 3 µM on RORγt [3] (Jurkat) was 101%.
For the compound `C[Si](C)(C)c1c(F)cc(NC(=O)[C@H]2c3ccc(OC(F)F)cc3CCN2C(=O)CCCC(=O)O)cc1F` [Example 196, 5-((1R)-6-(difluoromethoxy)-1-((3,5-difluoro-4-(trimethylsilyl)phenyl)carbamoyl)-3,4-dihydroisoquinolin-2 (1H)-yl)-5-oxopentanoic acid], the inhibition at 1 µM on RORγt [2] is 91%; at RORγt [1], 102%. In addition, the inhibition at 3 µM on RORγt [3] (Jurkat) stood at 100%.
For `CCOc1ccc2c(c1)CCN(C(=O)[C@H](O)CCC(=O)O)[C@H]2C(=O)Nc1cc(F)c([Si](C)(C)C)c(F)c1` [Example 209, (4R)-5-((1R)-1-((3,5-difluoro-4-(trimethylsilyl)phenyl)carbamoyl)-6-ethoxy-3,4-dihydroisoquinolin-2(1H)-yl)-4-hydroxy-5-oxopentanoic acid] the same measures were 87%, 102% and 99%.
In the case of `CCOc1ccc2c(c1)CCN(C(=O)CCCCC(=O)O)[C@H]2C(=O)Nc1cc(F)c2c(c1)CCC2(C)C` [Example 210, 6-((1R)-6-ethoxy-1-((7-fluoro-1,1-dimethyl-2,3-dihydro-1H-inden-5-yl)carbamoyl)-3,4-dihydroisoquinolin-2(1H)-yl)-6-oxohexanoic acid], the inhibition at 1 µM on RORγt [2] is 76%; at RORγt [1] it was 101%. In addition, the inhibition at 3 µM on RORγt [3] (setting [5]) was found to be 98%.
Consider `CCOc1ccc2c(c1)CCN(C(=O)CCCCC(=O)O)[C@H]2C(=O)Nc1ccc([Si](C)(C)C)c(F)c1` [Example 211, 6-((1R)-6-ethoxy-1-((3-fluoro-4-(trimethylsilyl)phenyl)carbamoyl)-3,4-dihydroisoquinolin-2 (1H)-yl)-6-oxohexanoic acid], for which the inhibition at 1 µM on RORγt [2] was determined as 92%; at RORγt [1] it was 101%. Further, the inhibition at 3 µM at RORγt [3] (Jurkat) came to 101%.
